“Also recorded” adds a separate entry of the source.
Key:
[1] = tested on: CD4^+ T cell hybridomas with C3g7 APCs; assay: Antigen presentation assay; type: cell-based, mouse; conditions: for response of InsB:11–25-reactive CD4^+ T cell hybridoma clone 58: Extended Data Fig. 3
[2] = tested on: CD4^+ T cells from islets and pLN; type: cell-based; conditions: 8–10-week old female NOD mice; challenge with Ins1C:51–61 or Ins1C:51–61E and recall; compared with native Ins1C:51–61 or Ins1C:33–61; Fig. 3g
I-A^g7 = assay: Competitive binding assay; set-up: species or system mouse; conditions: n = 2 independent experiments
[3] = C3g7 APCs pulsed with epitope, Fig. 2c

Molecule: CCN(CC)CCCC(C)Nc1ccnc2cc(Cl)ccc12 (centres unmarked) [chloroquine, reference compound]
- effect on presentation of Ins1C:33–61 to a cognate CD4^+ T cell hybridoma ([1]; C3g7 APCs treated with 100 μM chloroquine at 37°C for 2 h in the presence of antigen, Extended Data Fig. 1d): did not affect the presentation

Molecule: EALYLVCGE [InsB:13–21]
- response of InsB:11–25-reactive CD4^+ T cell hybridoma clone 58 [1, 3]: did not recognize; also recorded: unreactive

Molecule: LQTLALEVARE [Ins1C:51–61E]
- IL-2 and IFN-γ production by islet/pLN CD4^+ T cells [2]: substantially stronger responses
- fold higher binding affinity to I-A^g7 than Ins1C:51–61 (I-A^g7; competitive binding assay, Fig. 3e): ~ 3 fold

Molecule: LYLVCGERG [InsB:15–23]
- response of InsB:11–25-reactive CD4^+ T cell hybridoma clone 58 [1, 3]: responded

Molecule: TLALEVARE [Ins1C:53–61E]
- relative binding strength to I-A^g7 (in words) (I-A^g7; competitive binding assay on C3g7 cells): bound poorly

Molecule: VEALYLVCG [InsB:12–20]
- response of InsB:11–25-reactive CD4^+ T cell hybridoma clone 21 [1, 3]: cross-reacted
- response of InsB:11–25-reactive CD4^+ T cell hybridoma clone 58 [1, 3]: did not recognize; also recorded: unreactive

Source: article PMC7117798 (Nature immunology, 2020)
